These results are taken from patent US20240043435A1, “TYK-2 INHIBITOR” (BEIGENE, LTD., priority 2020, published 2024).

Test [1] deals with T1, TYK2-JH2 (aa 575-869, in-house) protein (Homo sapiens, UniProt P29597).
T1 construct: TYK2-JH2 (aa 575-869, in-house) protein; made in house
The experiment in a line: TYK2-JH2 biochemical assay (HTRF probe displacement). Type of test: binding. The settings on record: Biochemical assay; read-out: TYK2-JH2 IC50. The method, then:
Assay A: TYK2-JH2 Biochemical Assay
Compounds disclosed herein were tested for blocking of TYK2-JH2 (aa 575-869, in-house) protein with its probe in an assay based on Homogeneous Time Resolved Fluorescence. Compound dilution is done according to the following protocol: (1) Prepare 500× compounds solution in DMSO from 500 uM by 5-fold dilution, total 10 doses were included; (2) Prepare 10× compounds solution in an assay buffer containing 20 mM HEPES, pH 7.5, 10 mM MgCl2, 0.005% BSA, 2 mM DTT, 0.015% Brij-35 by transferring 1 μl serial 500× stock solution into 49 μl assay buffer. […] of 0.2 nM recombinant TYK2-JH2 protein was pre-incubated with 1 μl of 10× serial dilution of compounds at room temperature for 0.5 hour. […] The HTRF signals (ex337 nm, em620 nm/665 nm) were read on BMG PHERAstar FS instrument. The inhibition percentage of TYK2 interaction with its probe in presence of increasing concentrations of compounds was calculated based on the ratio of fluorescence at 615 nm to that at 665 nm. The IC50 for each compound was derived from fitting the data to the four-parameter logistic equation by Dotmatics.
A general note: In TR-FRET formats the signal depends on donor and acceptor labels being close together.

Test [2] relates to JAK2, TYK2/p-STAT4 (Tyr693) activated by IL-12 in NK-92 cell line. The experiment in a line: IL-12-JAK2, TYK2/p-STAT4 (Tyr693) inhibition IC50 cellular assay. The settings on record: for IC50: NK92, Cellular assay, read-out: pSTAT4/IL-12 IC50. The class given is cell-based. The source says: Assay C: IL-12-JAK2, TYK2/p-STAT4 (Tyr693) Inhibition IC50 Cellular Assay
To evaluate the inhibition effect of compounds disclosed herein on JAK2, TYK2/p-STAT4 (Tyr693) activated by IL-12 in NK-92 cell line, NK-92 cells were collected and washed 3 times by DPBS and resuspended in MEM-α (GIBCO, Cat #12561056) with 10% FBS (Gibco, Cat #10099, Lot #1891605), without IL-2 (R&D systems, Cat #202-IL), starved overnight. Cells were collected and resuspended in 1640 medium (phenol red free, Gibco, Cat #11835-030) with 0.1% BSA, and 12.5 μl/5×10^4/well cell suspension were seeded to the 96-well plate (Corning, Cat #3799). Then cells were treated with compounds diluted in 0.2% DMSO 1640 medium, at 37° C., 1 h. Dilution is done according to the following protocol: (1) make 500× compounds solution in DMSO from 5 mM by 4-fold dilution, total 8 doses were included; (3) make 2× compounds solution in assay medium by transferring 0.5 μl serial 500× stock solution into 125 μl assay medium; (4) 15 μl of 2× serial solution is added to cells and incubate at 37° C. for 1 h, the final compound conc. is 10000, 2500, 625, 156.25, 39, 9.8, 2.4 and 0.61 nM, respectively. After 1 h, cells were treated with 2.5 μl medium containing IL-12 at 37° C. (R&D systems, Cat #219-IL-005, final conc. 40 ng/ml), 30 min. Following cells were lysed with 7.5 μl lysis buffer at RT, shaking on shaker for 1 h. 10 μL of cell lysate were transferred to a PE 384-well Proxiplate detection plate, and 5 μL of pre-mixed Alphascreen beads were added to each well. Covered the plate with a plate sealer, span 1000 rpm for 1 min, mix, Incubated overnight at room temperature. Read on BMG PheraStar with Alphascreen protocol. IC 50 values were calculated by fitting dependent data to the four-parameter logistic model using dotmatics software. The assay was performed by using AlphaLISA SureFire Ultra p-STAT4 (Tyr693) Assay Kit—High Volume (PE, Cat #ALSU-PST4-A-HV).

The test system of a further test is pSTAT5/GM-CSF. The experiment in a line: pSTAT5/GM-CSF cellular assay (JAK2 selectivity). The class given is cell-based. Particulars: for Selectivity fold (TYK2/JAK2): pSTAT5/GM-CSF IC50 over pSTAT4/IL-12 IC50.

T1 sequence (P29597 575-869): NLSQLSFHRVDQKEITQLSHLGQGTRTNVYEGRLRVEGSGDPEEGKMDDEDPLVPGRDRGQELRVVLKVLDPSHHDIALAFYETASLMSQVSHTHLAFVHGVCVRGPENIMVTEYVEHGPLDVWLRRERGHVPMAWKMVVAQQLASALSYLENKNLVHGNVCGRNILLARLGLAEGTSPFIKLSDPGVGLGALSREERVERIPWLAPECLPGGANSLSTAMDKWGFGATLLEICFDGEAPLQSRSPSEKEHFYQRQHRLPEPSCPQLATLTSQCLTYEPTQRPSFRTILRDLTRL

`CC(=O)Nc1cc(Nc2cc(N3CC(C)(O)C3)cc(S(C)(=O)=O)n2)c(-c2ccc3c(n2)OCC(C)(C)O3)cn1` [Example Q56, N-(5-(2,2-dimethyl-2,3-dihydro-[1,4]dioxino[2,3-b]pyridin-6-yl)-4-((4-(3-hydroxy-3-methylazetidin-1-yl)-6-(methylsulfonyl)pyridin-2-yl)amino)pyrid-in-2-yl)acetamide]: the IC50 in test [1] amounted to 0.031 nM.
Regarding `CC(=O)Nc1cc(Nc2cc(N3CCCC3)cc(S(C)(=O)=O)n2)c(-c2ccc3c(n2)OCC(C)(C)O3)cn1` [Example Q104, N-(5-(2,2-dimethyl-2,3-dihydro-[1,4]dioxino[2,3-b]pyridin-6-yl)-4-((6-(methylsulfonyl)-4-(pyrrolidin-1-yl)pyridin-2-yl)amino)pyridin-2-yl)acetamide], the IC50 in test [1] is 0.029 nM.
On to `COCCOc1cc(Nc2cc(NC(C)=O)ncc2-c2ccc(F)cn2)nc(S(C)(=O)=O)c1` [Example F16, N-(5-fluoro-4′-((4-(2-methoxyethoxy)-6-(methylsulfonyl)pyridin-2-yl)amino)-[2,3′-bipyridin]-6′-yl)acetamide], for which, in test [1], the IC50 is 0.027 nM.
Regarding `CC(=O)Nc1cc(Nc2cc(N3CC4CC4C3)cc(S(C)(=O)=O)n2)c(-c2ccc3c(n2)OCC(C)(C)O3)cn1` (stereo not shown) [Example Q106, N-(4-((4-(3-azabicyclo[3.1.0]hexan-3-yl)-6-(methylsulfonyl)pyridin-2-yl)amino)-5-(2,2-dimethyl-2,3-dihydro-[1,4]dioxino[2,3-b]pyridin-6-yl)pyridin-2-yl)acetamide], the IC50 in test [1] was determined as 0.015 nM.
As for `CC(=O)Nc1cc(Nc2cc(N3CC[C@H](OCCO)C3)cc(S(C)(=O)=O)n2)c(-c2ccc3c(n2)OCC(C)(C)O3)cn1` [Example Q61, (S)-N-(5-(2,2-dimethyl-2,3-dihydro-[1,4]dioxino[2,3-b]pyridin-6-yl)-4-((4-(3-(2-hydroxyethoxy)pyrrolidin-1-yl)-6-(methylsulfonyl)pyridin-2-yl)amino)pyridin-2-yl)acetamide], in test [1], the IC50 is 0.022 nM.
Turning to `CC(=O)Nc1cc(Nc2cc(C3CCOCC3)cc(S(C)(=O)=O)n2)c(-c2ccc3c(n2)OCC(C)(C)O3)nn1` [Example Q58, N-(6-(2,2-dimethyl-2,3-dihydro-[1,4]dioxino[2,3-b]pyridin-6-yl)-5-((6-(methylsulfonyl)-4-(tetrahydro-2H-pyran-4-yl)pyridin-2-yl)amino)pyridazin-3-yl)acetamide], the IC50 in test [1] was found to be 0.097 nM.
Regarding `CC(=O)Nc1cc(Nc2cc(C#N)cc(S(C)(=O)=O)c2)c(-c2ccc(C(F)(F)F)cn2)cn1` [Example F4, N-(4′-((3-cyano-5-(methylsulfonyl)phenyl)amino)-5-(trifluoromethyl)-[2,3′-bipyridin]-6′-yl)acetamide], the IC50 in test [1] turned out to be 0.324 nM.
In the case of `CC(=O)Nc1cc(Nc2nc(S(C)(=O)=O)ccc2C2CCOCC2)c(-c2ccc3c(n2)OCC(C)(C)O3)cn1` [Example Q90, N-(5-(2,2-dimethyl-2,3-dihydro-[1,4]dioxino[2,3-b]pyridin-6-yl)-4-((6-(methylsulfonyl)-3-(tetrahydro-2H-pyran-4-yl)pyridin-2-yl)amino)pyridin-2-yl)acetamide], the IC50 in test [2] is 44 nM. Also, in the test with pSTAT5/GM-CSF, the IC50 is over 10000 nM and the “Selectivity fold (TYK2/JAK2)” value is recorded as over 227 fold.
For `CC(=O)Nc1cc(Nc2cc(C)cc(S(C)(=O)=O)c2)c(-c2ccc(C(F)(F)F)cn2)cn1` [Example F3, N-(4′-((3-methyl-5-(methylsulfonyl)phenyl)amino)-5-(trifluoromethyl)-[2,3′-bipyridin]-6′-yl)acetamide], in test [1], the IC50 amounted to 0.068 nM.
Still for that read-out and setting: the same measure for `CC(=O)Nc1cc(Nc2cc(OC(C)C)cc(S(C)(=O)=O)c2)c(-c2ccc(F)cn2)cn1` [Example F14, N-(5-fluoro-4′-((3-isopropoxy-5-(methylsulfonyl)phenyl)amino)-[2,3′-bipyridin]-6′-yl)acetamide]: 0.13 nM; for `CCn1ccc(-c2cnc(NC(C)=O)cc2Nc2cc(C#N)cc(S(C)(=O)=O)c2)n1` [Example M10, N-(4-((3-cyano-5-(methylsulfonyl)phenyl)amino)-5-(1-ethyl-1H-pyrazol-3-yl)pyridin-2-yl)acetamide]: 0.099 nM.
Regarding `CC(=O)Nc1cc(Nc2cc(C3CCOC3)cc(S(C)(=O)=O)n2)c(-c2ccc3c(n2)OCC(C)(C)O3)cn1` (stereo not shown) [Example Q86, N-(5-(2,2-dimethyl-2,3-dihydro-[1,4]dioxino[2,3-b]pyridin-6-yl)-4-((6-(methylsulfonyl)-4-(tetrahydrofuran-3-yl)pyridin-2-yl)amino)pyridin-2-yl)acetamde], the IC50 in test [1] stood at 0.031 nM.
On to `COC(C)c1cc(Nc2cc(NC(C)=O)ncc2-c2ccc(N3C[C@@H](C)O[C@@H](C)C3)cn2)nc(S(C)(=O)=O)c1` (single isomer, unassigned) [Example C20, N-(5-((cis)-2,6-dimethylmorpholino)-4′-((4-((R or S)-1-methoxyethyl)-6-(methylsulfonyl)pyridin-2-yl)amino)-[2,3′-bipyridin]-6′-yl)acetamide], for which, in test [1], the IC50 came to 0.023 nM.
Turning to `CC(=O)Nc1cc(Nc2cc(C)cc(S(C)(=O)=O)n2)c(-c2cc(C(C)(C)O)ccn2)cn1` [Example B10, N-(4-(2-hydroxypropan-2-yl)-4′-((4-methyl-6-(methylsulfonyl)pyridin-2-yl)amino)-[2,3′-bipyridin]-6′-yl)acetamide], the IC50 in test [1] was found to be 0.045 nM.
`CC(=O)Nc1cc(Nc2cc(-c3nccnc3C)cc(S(C)(=O)=O)n2)c(-c2ccc3c(n2)OCC(C)(C)O3)cn1` [Example Q110, N-(5-(2,2-dimethyl-2,3-dihydro-[1,4]dioxino[2,3-b]pyridin-6-yl)-4-((4-(3-methylpyrazin-2-yl)-6-(methylsulfonyl)pyridin-2-yl)amino)pyridin-2-yl)acetamide]: the IC50 in test [2] is 1.08 nM; with pSTAT5/GM-CSF, over 10000 nM. In addition, the “Selectivity fold (TYK2/JAK2)” value with pSTAT5/GM-CSF was over 9259 fold.
For the molecule `COCCOc1cc(Nc2cc(NC(C)=O)ncc2-c2ccccn2)nc(S(C)(=O)=O)c1` [Example B6, N-(4′-((4-(2-methoxyethoxy)-6-(methylsulfonyl)pyridin-2-yl)amino)-[2,3′-bipyridin]-6′-yl)acetamide], the “Selectivity fold (TYK2/JAK2)” value in test [2] (Cellular assay, pSTAT5/GM-CSF IC50 vs pSTAT4/IL-12 IC50) is on record as over 8264 fold. Besides, the IC50 in test [2] was 1.21 nM; in the test with pSTAT5/GM-CSF it was over 10000 nM.
For the molecule `CC(=O)Nc1cc(Nc2cc(N3CCC4(CC4)C3)cc(S(C)(=O)=O)n2)c(-c2ccc3c(n2)OCC(C)(C)O3)cn1` [Example Q97, N-(5-(2,2-dimethyl-2,3-dihydro-[1,4]dioxino[2,3-b]pyridin-6-yl)-4-((6-(methylsulfonyl)-4-(5-azaspiro[2.4]heptan-5-yl)pyridin-2-yl)amino)pyridin-2-yl)acetamide], the IC50 in test [2] is 3.29 nM; with pSTAT5/GM-CSF, over 10000 nM. For the same molecule, the “Selectivity fold (TYK2/JAK2)” value with pSTAT5/GM-CSF is over 3039 fold.
For `CC(=O)Nc1cc(Nc2cc(-c3ccc(C#N)nc3)cc(S(C)(=O)=O)n2)c(-c2ccc3c(n2)OCC(C)(C)O3)cn1` [Example Q108, N-(4-((6-cyano-6′-(methylsulfonyl)-[3,4′-bipyridin]-2′-yl)amino)-5-(2,2-dimethyl-2,3-dihydro-[1,4]dioxino[2,3-b]pyridin-6-yl)pyridin-2-yl)acetamide] the same measures were 1.18 nM, over 10000 nM and over 8474 fold.
